In PubChem BioAssay AID1963875 (Molecular Pharmacology Branch, DTP, NCI, 2024):
Where “and” joins values, the source holds several entries; their conditions need not be identical. Equal entries are not always repeated.

System: KRAS-mutant PDC complex spheroid viability
Assay: Anticancer human tumor 186277-243-T-J2-PDC patient-derived colon adenocarcinoma cell line growth inhibition [KRAS2]
Settings: for viability, T/C: stronger effect = lower value
How it was run: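 KRAS-mutant tumor cells were grown as spheroids with HUVEC endothelial cells and human MSCs as stroma. Targeted agents were tested alone and with KRAS pathway inhibitors. Doses started at or near clinical Cmax, or 10 microM, descending half-log.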

[1] = curve of first compound, second compound 0.1 µM
[2] = curve of first compound, second compound 0.316 µM
[3] = curve of first compound, second compound 1 µM
[4] = curve of first compound, second compound 3.16 µM
[5] = curve of first compound, second compound 10 µM
[6] = second compound 0.1 µM, first compound 0.000316 µM
[7] = second compound 0.1 µM, first compound 0.001 µM
[8] = second compound 0.1 µM, first compound 0.00316 µM
[9] = second compound 0.1 µM, first compound 0.01 µM
[10] = second compound 0.1 µM, first compound 0.0316 µM
[11] = second compound 0.316 µM, first compound 0.000316 µM
[12] = second compound 0.316 µM, first compound 0.001 µM
[13] = second compound 0.316 µM, first compound 0.00316 µM
[14] = second compound 0.316 µM, first compound 0.01 µM
[15] = second compound 0.316 µM, first compound 0.0316 µM
[16] = second compound 1 µM, first compound 0.000316 µM
[17] = second compound 1 µM, first compound 0.001 µM
[18] = second compound 1 µM, first compound 0.00316 µM
[19] = second compound 1 µM, first compound 0.01 µM
[20] = second compound 1 µM, first compound 0.0316 µM
[21] = second compound 3.16 µM, first compound 0.000316 µM
[22] = second compound 3.16 µM, first compound 0.001 µM
[23] = second compound 3.16 µM, first compound 0.00316 µM
[24] = second compound 3.16 µM, first compound 0.01 µM
[25] = second compound 3.16 µM, first compound 0.0316 µM
[26] = second compound 10 µM, first compound 0.000316 µM
[27] = second compound 10 µM, first compound 0.001 µM
[28] = second compound 10 µM, first compound 0.00316 µM
[29] = second compound 10 µM, first compound 0.01 µM
[30] = second compound 10 µM, first compound 0.0316 µM
[31] = second compound 0.1 µM, first compound 0.1 µM
[32] = second compound 0.316 µM, first compound 0.1 µM
[33] = second compound 1 µM, first compound 0.1 µM
[34] = second compound 3.16 µM, first compound 0.1 µM
[35] = second compound 10 µM, first compound 0.1 µM
[36] = second compound 0.1 µM, first compound 0.316 µM
[37] = second compound 0.1 µM, first compound 1 µM
[38] = second compound 0.1 µM, first compound 3.16 µM
[39] = second compound 0.1 µM, first compound 10 µM
[40] = second compound 0.316 µM, first compound 0.316 µM
[41] = second compound 0.316 µM, first compound 1 µM
[42] = second compound 0.316 µM, first compound 3.16 µM
[43] = second compound 0.316 µM, first compound 10 µM
[44] = second compound 1 µM, first compound 0.316 µM
[45] = second compound 1 µM, first compound 1 µM
[46] = second compound 1 µM, first compound 3.16 µM
[47] = second compound 1 µM, first compound 10 µM
[48] = second compound 3.16 µM, first compound 0.316 µM
[49] = second compound 3.16 µM, first compound 1 µM
[50] = second compound 3.16 µM, first compound 3.16 µM
[51] = second compound 3.16 µM, first compound 10 µM
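For viability, T/C in this document: viability read after seven days of compound exposure; 100% = DMSO vehicle-treated spheroids so lower means less viable.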

## CC(=O)Nc1cccc(-n2c(=O)n(C3CC3)c(=O)c3c(Nc4ccc(I)cc4F)n(C)c(=O)c(C)c32)c1 + CNCc1ccccc1-c1csc(C(C)Nc2nc(C)nc3cc(OC)c(OC)cc23)c1
[1]
  IC50: 0.52 nM
[2]
  IC50: 0.302 nM
[3]
  IC50: 0.245 nM
[4]
  IC50: < 0.1 nM
[5]
  IC50: < 0.1 nM
Second compound 0.1 µM, first compound 0.0001 µM
  viability, T/C: 109%
[6]
  viability, T/C: 75.5%
[7]
  viability, T/C: 16.4%
[8]
  viability, T/C: 4.46%
[9]
  viability, T/C: 2.28%
[10]
  viability, T/C: 1.31%
Second compound 0.316 µM, first compound 0.0001 µM
  viability, T/C: 103%
[11]
  viability, T/C: 47.9%
[12]
  viability, T/C: 10.8%
[13]
  viability, T/C: 3.37%
[14]
  viability, T/C: 1.77%
[15]
  viability, T/C: 1.09%
Second compound 1 µM, first compound 0.0001 µM
  viability, T/C: 115%
[16]
  viability, T/C: 31.3%
[17]
  viability, T/C: 6.94%
[18]
  viability, T/C: 1.83%
[19]
  viability, T/C: 1.15%
[20]
  viability, T/C: 0.51%
Second compound 3.16 µM, first compound 0.0001 µM
  viability, T/C: 40.6%
[21]
  viability, T/C: 0.37%
[22]
  viability, T/C: 0.04%
[23]
  viability, T/C: 0.02%
[24]
  viability, T/C: 0.02%
[25]
  viability, T/C: 0.11%
Second compound 10 µM, first compound 0.0001 µM
  viability, T/C: 0.14%
[26]
  viability, T/C: 0.11%
[27]
  viability, T/C: 0.1%
[28]
  viability, T/C: 0.1%
[29]
  viability, T/C: 0.11%
[30]
  viability, T/C: 0.18%

## CN(C)C/C=C/C(=O)Nc1cc2c(Nc3ccc(F)c(Cl)c3)ncnc2cc1O[C@H]1CCOC1 + CNCc1ccccc1-c1csc(C(C)Nc2nc(C)nc3cc(OC)c(OC)cc23)c1
[1]
  IC50: > 100 nM
[2]
  IC50: > 100 nM
[3]
  IC50: > 100 nM
[4]
  IC50: 7.32 nM
[5]
  IC50: < 0.316 nM
[6]
  viability, T/C: 100%
[7]
  viability, T/C: 100%
[8]
  viability, T/C: 110%
[9]
  viability, T/C: 117%
[10]
  viability, T/C: 127%
[31]
  viability, T/C: 108%
[11]
  viability, T/C: 110%
[12]
  viability, T/C: 96.2%
[13]
  viability, T/C: 113%
[14]
  viability, T/C: 119%
[15]
  viability, T/C: 109%
[32]
  viability, T/C: 96%
[16]
  viability, T/C: 108%
[17]
  viability, T/C: 107%
[18]
  viability, T/C: 102%
[19]
  viability, T/C: 120%
[20]
  viability, T/C: 119%
[33]
  viability, T/C: 95.9%
[21]
  viability, T/C: 108%
[22]
  viability, T/C: 103%
[23]
  viability, T/C: 109%
[24]
  viability, T/C: 29%
[25]
  viability, T/C: 16.4%
[34]
  viability, T/C: 5.67%
[26]
  viability, T/C: 0.21%
[27]
  viability, T/C: 0.22%
[28]
  viability, T/C: 0.19%
[29]
  viability, T/C: 0.15%
[30]
  viability, T/C: 0.13%
[35]
  viability, T/C: 0.33%

## COc1cc2nccc(Oc3ccc(NC(=O)C4(C(=O)Nc5ccc(F)cc5)CC4)cc3)c2cc1OC + C=CC(=O)N1CCN(c2nc(=O)n(-c3c(C)ccnc3C(C)C)c3nc(-c4c(O)cccc4F)c(F)cc23)C(C)C1
[1]
  IC50: 1880 nM
[2]
  IC50: 1770 nM
[3]
  IC50: 1320 nM
[4]
  IC50: 823 nM
[5]
  IC50: 101 nM
[10]
  viability, T/C: 95.2%
[31]
  viability, T/C: 94.8%
[36]
  viability, T/C: 100%
[37]
  viability, T/C: 93.7%
[38]
  viability, T/C: 13.1%
[39]
  viability, T/C: 15.4%
[15]
  viability, T/C: 93%
[32]
  viability, T/C: 85.5%
[40]
  viability, T/C: 98.2%
[41]
  viability, T/C: 86.1%
[42]
  viability, T/C: 12.3%
[43]
  viability, T/C: 14%
[20]
  viability, T/C: 98%
[33]
  viability, T/C: 92.4%
[44]
  viability, T/C: 101%
[45]
  viability, T/C: 61.8%
[46]
  viability, T/C: 12.4%
[47]
  viability, T/C: 13.7%
[25]
  viability, T/C: 94.5%
[34]
  viability, T/C: 103%
[48]
  viability, T/C: 91.2%
[49]
  viability, T/C: 41.8%
[50]
  viability, T/C: 9.95%
[51]
  viability, T/C: 11.2%
[30]
  viability, T/C: 49.9%
[35]
  viability, T/C: 52.7%
Second compound 10 µM, first compound 0.316 µM
  viability, T/C: 32.3%
Second compound 10 µM, first compound 1 µM
  viability, T/C: 9.14%
Second compound 10 µM, first compound 3.16 µM
  viability, T/C: 2.99%
Second compound 10 µM, first compound 10 µM
  viability, T/C: 3.53%

## CC(C)n1nc(-c2ccc3oc(N)nc3c2)c2c(N)ncnc21 + CNCc1ccccc1-c1csc(C(C)Nc2nc(C)nc3cc(OC)c(OC)cc23)c1
[1]
  IC50: 5.68 nM
[2]
  IC50: 4.02 nM
[3]
  IC50: 5.06 nM
[4]
  IC50: 1.17 nM
[5]
  IC50: < 0.316 nM
[6]
  viability, T/C: 108%
[7]
  viability, T/C: 92.5%
[8]
  viability, T/C: 57%
[9]
  viability, T/C: 40.3%
[10]
  viability, T/C: 28.6%
[31]
  viability, T/C: 16.6%
[11]
  viability, T/C: 98.8%
[12]
  viability, T/C: 80.8%
[13]
  viability, T/C: 54.7%
[14]
  viability, T/C: 32.9%
[15]
  viability, T/C: 23.4%
[32]
  viability, T/C: 19.7%
[16]
  viability, T/C: 96.3%
[17]
  viability, T/C: 88.8%
[18]
  viability, T/C: 55.8%
[19]
  viability, T/C: 37.7%
[20]
  viability, T/C: 22.9%
[33]
  viability, T/C: 14.9%
[21]
  viability, T/C: 63.9%
[22]
  viability, T/C: 55.9%
[23]
  viability, T/C: 14%
[24]
  viability, T/C: 16.8%
[25]
  viability, T/C: 8.24%
[34]
  viability, T/C: 1.61%
[26]
  viability, T/C: 0.14%
[27]
  viability, T/C: 0.13%
[28]
  viability, T/C: 0.11%
[29]
  viability, T/C: 0.1%
[30]
  viability, T/C: 0.1%
[35]
  viability, T/C: 0.16%

## COc1cc(Nc2ncc3c(n2)-c2ccc(Cl)cc2C(c2c(F)cccc2OC)=NC3)ccc1C(=O)O + C=CC(=O)N1CCN(c2nc(OCC3CCCN3C)nc3c2CCN(c2cccc4cccc(C)c24)C3)CC1CC#N
Curve of first compound, second compound 0.0316 µM
  IC50: < 31.6 nM
[1]
  IC50: < 31.6 nM
[2]
  IC50: < 31.6 nM
[3]
  IC50: < 31.6 nM
[4]
  IC50: < 31.6 nM
Second compound 0.0316 µM, first compound 0.0316 µM
  viability, T/C: 34%
Second compound 0.0316 µM, first compound 0.1 µM
  viability, T/C: 32.2%
Second compound 0.0316 µM, first compound 0.316 µM
  viability, T/C: 30%
Second compound 0.0316 µM, first compound 1 µM
  viability, T/C: 34.5%
Second compound 0.0316 µM, first compound 3.16 µM
  viability, T/C: 43.3%
Second compound 0.0316 µM, first compound 10 µM
  viability, T/C: 48%
[10]
  viability, T/C: 34.2%
[31]
  viability, T/C: 31.7%
[36]
  viability, T/C: 30.3%
[37]
  viability, T/C: 31.2%
[38]
  viability, T/C: 42.8%
[39]
  viability, T/C: 44.2%
[15]
  viability, T/C: 34.3%
[32]
  viability, T/C: 28.6%
[40]
  viability, T/C: 27.4%
[41]
  viability, T/C: 30.2%
[42]
  viability, T/C: 40.2%
[43]
  viability, T/C: 42.5%
[20]
  viability, T/C: 28%
[33]
  viability, T/C: 26.4%
[44]
  viability, T/C: 25.9%
[45]
  viability, T/C: 25.3%
[46]
  viability, T/C: 29.5%
[47]
  viability, T/C: 21.6%
[25]
  viability, T/C: 0.25%
[34]
  viability, T/C: 0.19%
[48]
  viability, T/C: 0.19%
[49]
  viability, T/C: 0.17%
[50]
  viability, T/C: 0.69%
[51]
  viability, T/C: 0.19%

## CC1OCC2(CCN(c3cnc(Sc4ccnc(N)c4Cl)c(N)n3)CC2)C1N (stereo unspecified)
Compound 0.0316 µM
  viability, T/C: 107% and 92.4% and 90.5%
Compound 0.1 µM
  viability, T/C: 102% [middle of 19 runs]
Compound alone, run of 07/12/2021
  IC50: > 10000 nM
Compound alone, run of 07/19/2021
  IC50: 7400 nM and > 10000 nM
Compound alone, run of 07/26/2021
  IC50: > 10000 nM
Curve of compound
  IC50: > 10000 nM
